Data published in patent publication US20060046966A1, “Antipicornaviral compounds and compositions, their pharmaceutical uses, and materials for their synthesis” (Agouron Pharmaceuticals, Inc., priority 1998, published 2006).
Read-outs that look alike come from different tables or passages of the source.

Tests used:
[1] = test system: HRV (17); assay: Antirhinoviral H1-HeLa cell culture assay, HRV serotype 17; type: cell-based, human rhinovirus; conditions: Human rhinovirus sp., H1-HeLa cells, XTT
Description: (§1) In this cell protection assay, the ability of compounds to protect cells against HRV infection was measured by the XTT dye reduction method, which is described in Weislow et al., J. Natl. Cancer Inst. 1989, vol. 81, 577-586.
(§2) H1-HeLa cells were infected with HRV-14 at a multiplicity of infection (m.o.i.) of 0.13 (virus particles/cell) or mock-infected with medium only. Infected or mock-infected cells were resuspended at 8×10^5 cells per mL, and incubated with appropriate concentrations of the compounds to be tested. Two days later, XTT/PMS was added to test plates and the amount of formazan produced was quantified spectrophotometrically at 450/650 nm. The EC50 value was calculated as the concentration of compound that increased the percentage of formazan production in compound-treated, virus-infected cells to 50% of that produced by compound-free, mock-infected cells. The 50% cytotoxic dose (CC50) was calculated as the concentration of compound that decreased the percentage of formazan produced in compound-treated, mock-infected cells to 50% of that produced by compound-free, mock-infected cells. The therapeutic index (TI) was calculated by dividing the CC50 value by the EC50 value.
(§3) All strains of human rhinovirus (HRV) for use in this assay were purchased from American Type Culture Collection (ATCC), except for HRV serotype-14 (produced from the infectious cDNA clone constructed by Dr. Robert Rueckert, Institute for Molecular Virology, University of Wisconsin, Madison, Wis.). HRV stocks were propagated and viral assays were performed in H1-HeLa cells (ATCC). Cells were grown in minimal essential medium with 10% fetal bovine serum, available from Life Technologies (Gaithersburg, Md.).
(§4) The compounds were tested against control compounds WIN 51711, WIN 52084, and WIN 54954 (obtained from Sterling-Winthrop Pharmaceuticals), Pirodavir (obtained from Janssen Pharmaceuticals), and Pleconaril (prepared according to the method described in Diana et al., J. Med. Chem 1995, vol. 38, 1355). […]

[2] = biological target: T1, rhinovirus 3C protease from HRV serotype-14 (Human rhinovirus 14, UniProt P03303); assay: Inhibition of rhinovirus 3C protease (FRET assay), serotype 14; type: biochemical; conditions: HRV serotype-14 3C protease; progress curves in enzyme start experiments; read-out: Protease Inhibition kobs/[I]
T1 construct: Recombinant rhinovirus 3C proteases; made in house
T1 sequence (P03303 1538-1719): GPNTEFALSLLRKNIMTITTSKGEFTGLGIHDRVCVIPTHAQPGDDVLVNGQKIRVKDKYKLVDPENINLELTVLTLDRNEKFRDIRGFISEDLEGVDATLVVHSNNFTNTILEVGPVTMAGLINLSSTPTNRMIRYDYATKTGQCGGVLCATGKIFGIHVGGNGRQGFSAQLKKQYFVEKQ
Description: Stock solutions (50 mM, in DMSO) of various compounds were prepared; dilutions were in the same solvent. Recombinant rhinovirus 3C proteases (see Birch et al., “Purification of recombinant human rhinovirus 14 3C protease expressed in Escherichia coli,” Protein Expr. Pur. 1995, 6(5), 609-618) from serotypes 14, 16, and 2 were prepared by the following standard chromatographic procedures: (1) ion exchange using Q Sepharose Fast Flow from Pharmacia; (2) affinity chromatography using Affi-Gel Blue from Biorad; and (3) sizing using Sephadex G-100 from Pharmacia. Each assay sample contained 2% DMSO, 50 mM tris pH 7.6, 1 mM EDTA, a test compound at the indicated concentration, approximately 1 μM substrate, and 50-100 nM protease. The kobs/I values were obtained from reactions initiated by addition of enzyme rather than substrate. RVP activity was measured in the fluorescence resonance energy transfer assay. The substrate was (N-terminal) DABCYL-(Gly-Arg-Ala-Val-Phe-Gln-Gly-Pro-Val-Gly)-EDANS. In the uncleaved peptide, the EDANS fluorescence was quenched by the proximal DABCYL moiety. When the peptide was cleaved, the quenching was relieved, and activity was measured as an increase in fluorescence signal. In Table 1, all data are for rhinovirus 3C protease from HRV serotype-14 (produced from the infectious cDNA clone constructed by Dr. Robert Rueckert, Institute for Molecular Virology, University of Wisconsin, Madison, Wis.). […] The data in the column designated kobs/[I] were measured from progress curves in enzyme start experiments.

[3] = test system: HRV (38); assay: Antirhinoviral H1-HeLa cell culture assay, HRV serotype 38; type: cell-based; conditions: Human rhinovirus sp., H1-HeLa cells, XTT
Description: as §1
as §2, with “value. […]” for “value.”

[4] = test system: HRV (16); assay: Antirhinoviral H1-HeLa cell culture assay, HRV serotype 16; type: cell-based; conditions: Human rhinovirus sp., H1-HeLa cells, XTT
Description: as §1, §2, §3, §4

[5] = test system: HRV (87); assay: Antirhinoviral H1-HeLa cell culture assay, HRV serotype 87; type: cell-based; conditions: Human rhinovirus sp., H1-HeLa cells, XTT
Description: as §1
as §2, with “value. […]” for “value.”

[6] = test system: HRV (3); assay: Antirhinoviral H1-HeLa cell culture assay, HRV serotype 3; type: cell-based, human rhinovirus; conditions: Human rhinovirus sp., H1-HeLa, H1-HeLa cells, XTT
Description: as §1, §2, §3, §4

[7] = test system: HRV (39); assay: Antirhinoviral H1-HeLa cell culture assay, HRV serotype 39; type: cell-based, human rhinovirus; conditions: Human rhinovirus sp., H1-HeLa cells, XTT
Description: as §1, §2, §3, §4

[8] = test system: HRV (10); assay: Antirhinoviral H1-HeLa cell culture assay, HRV serotype 10; type: cell-based, human rhinovirus; conditions: Human rhinovirus sp., H1-HeLa, H1-HeLa cells, XTT
Description: as §1, §2, §3
(§5) The compounds were tested against control compounds WIN 51711, WIN 52084, and WIN 54954 (obtained from Sterling-Winthrop Pharmaceuticals), Pirodavir (obtained from Janssen Pharmaceuticals), and Pleconaril (prepared according to the method described in Diana et al., J. Med. Chem 1995, vol. 38, 1355). Antiviral data obtained for the test compounds are shown in Tables 1 and 3, where all data are for HRV serotype-14 unless otherwise noted in parentheses.

[9] = test system: HRV (13); assay: Antirhinoviral H1-HeLa cell culture assay, HRV serotype 13; type: cell-based, human rhinovirus; conditions: Human rhinovirus sp., H1-HeLa, H1-HeLa cells, XTT
Description: as §1, §2, §3, §4

[10] = test system: HRV (2); assay: Antirhinoviral H1-HeLa cell culture assay, HRV serotype 2; type: cell-based, human rhinovirus; conditions: Human rhinovirus sp., H1-HeLa, H1-HeLa cells, XTT
Description: as §1, §2, §3, §5

[11] = test system: HRV (9); assay: Antirhinoviral H1-HeLa cell culture assay, HRV serotype 9; type: cell-based, human rhinovirus; conditions: Human rhinovirus sp., H1-HeLa cells, XTT
Description: as §1, §2, §3, §4

[12] = test system: HRV (89); assay: Antirhinoviral H1-HeLa cell culture assay, HRV serotype 89; type: cell-based, human rhinovirus; conditions: Human rhinovirus sp., H1-HeLa cells, XTT
Description: as §1, §2, §3, §5

[13] = test system: HRV-14; assay: Antirhinoviral H1-HeLa cell culture assay, HRV-14; type: cell-based, human rhinovirus; conditions: Rhinovirus B, HRV14, H1-HeLa, HRV serotype-14, H1-HeLa cells
Description: as §1, §2, §3, §5

[14] = test system: HRV (1A); assay: Antirhinoviral H1-HeLa cell culture assay, HRV serotype 1A; type: cell-based; conditions: Human rhinovirus sp., H1-HeLa cells, XTT
Description: as §1, §2, §3, §5

[15] = test system: HRV (30); assay: Antirhinoviral H1-HeLa cell culture assay, HRV serotype 30; type: cell-based; conditions: Human rhinovirus sp., H1-HeLa cells, XTT
Description: as §1
as §2, with “value. […]” for “value.”

[16] = test system: HRV (25); assay: Antirhinoviral H1-HeLa cell culture assay, HRV serotype 25; type: cell-based; conditions: Human rhinovirus sp., H1-HeLa cells, XTT
Description: as §1
as §2, with “value. […]” for “value.”

[17] = test system: HRV (12); assay: Antirhinoviral H1-HeLa cell culture assay, HRV serotype 12; type: cell-based; conditions: Human rhinovirus sp., H1-HeLa cells, XTT
Description: as §1
as §2, with “value. […]” for “value.”

[18] = test system: Echovirus type 11 (EV 11); assay: Anti-echoviral cell culture assay, EV 11; type: cell-based; conditions: Enterovirus B, MRC5, 96 h; Strain EV-11; MRC-5 cells; four days; XTT; read-out: EC50
Description: (§6) Echovirus type 11 (EV 11) and enterovirus type 70 (EV 70) were purchased from ATCC (Rockville, Md.). Virus stocks were propagated and antiviral assays were performed in MRC-5 cells (ATCC). Cells were grown in minimal essential medium with 10% fetal bovine serum (Life Technologies, Gaithersburg, Md.).
(§7) The ability of compounds to protect cells against either EV 11 or EV 70 infection was measured by the XTT dye reduction method (Weislow et al., J. Natl. Cancer Inst. 1989, vol. 81, 577-586). MRC-5 cells were infected with EV 11 or EV 70 at an m.o.i. of 0.003 or 0.004, respectively, or mock-infected with medium only. Infected or uninfected cells were added at 1×10^4 cells per well and incubated with appropriate concentrations of compound. Four days later, XTT/PMS was added to test plates, and the amount of formazan produced was quantified spectrophotometrically at 450/650 nm. The EC50 was calculated as the concentration of compound that increased the formazan production in compound-treated, virus-infected cells to 50% of that produced by compound-free, uninfected cells. The 50% cytotoxic dose (CC50) was calculated as the concentration of compound that decreased formazan production in compound-treated, uninfected cells to 50% of that produced in compound-free, uninfected cells. The therapeutic index (TI) was calculated by dividing the CC50 by the EC50.
The compounds were tested against control compounds Pirodavir (obtained from Janssen Pharmaceuticals) and Pleconaril (prepared according to Diana et al., J. Med. Chem. 1995, vol. 38, 1355). Antiviral data obtained for the test compounds against strain EV 11 and EV 70 are shown below in Table 5.

[19] = test system: Coxsackievirus type B3 (CVB-3); assay: Anticoxsackieviral cell culture assay, CVB-3; type: cell-based; conditions: 24 h, Strain CVB-3, H1-HeLa cells, one day, XTT, read-out: EC50
Description: (§8) Coxsackievirus types A-21 (CAV-21) and B3 (CVB-3) were purchased from American Type Culture Collection (ATCC, Rockville, Md.). Virus stocks were propagated and antiviral assays were performed in H1-HeLa cells (ATCC). Cells were grown in minimal essential medium with 10% fetal bovine serum (Life Technologies, Gaithersburg, Md.).
(§9) The ability of compounds to protect cells against either CAV-21 or CVB-3 infection was measured by the XTT dye reduction method. This method is described in Weislow et al., J. Natl. Cancer Inst. 1989, vol. 81, 577-586. H1-HeLa cells were infected with CAV-21 or CVB-3 at a multiplicity of infection (m.o.i.) of 0.025 or 0.075, respectively, or mock-infected with medium only. H1-HeLa cells were plated at 4×10^4 cells per well in a 96-well plate and incubated with appropriate concentrations of the test compound. One day (CVB-3) or two days (CAV-21) later, XTT/PMS was added to test plates and the amount of formazan produced was quantified spectrophotometrically at 450/650 nm. The EC50 was calculated as the concentration of compound that increased the formazan production in compound-treated, virus-infected cells to 50% of that produced by compound-free, uninfected cells. The 50% cytotoxic dose (CC50) was calculated as the concentration of compound that decreased formazan production in compound-treated, uninfected cells to 50% of that produced in compound-free, uninfected cells. The therapeutic index TI) was calculated by dividing the CC50 by the EC50.
(§10) The compounds were tested against control compounds WIN 54954 (obtained from Sterling-Winthrop Pharmaceuticals), Pirodavir (obtained from Janssen Pharmaceuticals), and Pleconaril (prepared according to Diana et al., J. Med. Chem. 1995, 38, 1355).

[20] = test system: Coxsackievirus type A-21 (CAV-21); assay: Anticoxsackieviral cell culture assay, CAV-21; type: cell-based; conditions: 48 h, Strain CAV-21, H1-HeLa cells, two days, XTT, read-out: EC50
Description: as §8, §9, §10

[21] = test system: enterovirus type 70 (EV 70); assay: Anti-enteroviral cell culture assay, EV 70; type: cell-based; conditions: Enterovirus D, MRC5, 96 h; Strain EV-70; MRC-5 cells; four days; XTT
Description: as §6
as §7, with “EC50. […]” for “EC50.”

[22] = test system: H1-HeLa cells; assay: Cytotoxicity in uninfected H1-HeLa cells (anticoxsackieviral assay, XTT); type: cell-based; conditions: 50% cytotoxic dose, Table 4
Description: as §9

SMILES: CCOC(=O)/C=C/[C@H](C[C@@H]1CCNC1=O)NC(=O)[C@H](Cc1ccc(F)cc1)OC(=O)[C@@H](NC(=O)c1cc(C)on1)C(C)C [Compound C-2, Ethyl-3-{(5′-Methylisoxazole-3′-carbonyl)-L-Val-O-L-(4-F-Phe)-L-((S)-Pyrrol-Ala)}-E-Propenoate]
- EC50 [1]: 7 nM
- kinact/KI [2]: 270000 M⁻¹ s⁻¹
- EC50 [3]: 50 nM
- EC50 [4]: 10 nM
- EC50 [5]: 20 nM
- EC50 [6]: 20 nM
- EC50 [7]: 10 nM
- EC50 [8]: 20 nM
- EC50 [9]: 7 nM
- EC50 [10]: 4 nM
- EC50 [11]: 10 nM
- EC50 [12]: 4 nM
- EC50 ([13]; Table 1, XTT dye reduction, read-out: Cell Protection EC50): 2 nM
- EC50 ([13]; Table 3, XTT, read-out: EC50): 2 nM
- EC50 [14]: 10 nM
- EC50 [15]: 30 nM
- EC50 [16]: 70 nM
- EC50 [17]: 40 nM

SMILES: CCOC(=O)c1ccc(OCCC2CCN(c3ccc(C)nn3)CC2)cc1 [Pirodavir, reference compound]
- EC50 [18]: 3700 nM
- EC50 ([13]; Table 3, XTT, read-out: EC50): 30 nM
- EC50 [19]: > 100000 nM
- EC50 [20]: > 100000 nM
- EC50 [21]: 60 nM

SMILES: Cc1cc(CCCCCOc2c(Cl)cc(C3=NCCO3)cc2Cl)on1 [WIN 54954]
- CC50 [22]: > 100000 nM
